Measurements taken from patent publication US8987264B2, “1,3,5-triazine derivatives of spiro bicyclic oxalamide-compounds for treatment of hepatitis C” (priority 2012, dated 2015).

test system: HCV pseudoparticles, genotype 1a (H77C) E1 and E2 envelope glycoproteins; assay: HCV pseudoparticle infection assay (luciferase reporter, Huh7 cells); format: cell-based; conditions: Hepatitis C virus, Huh-7, 48 h, read-out: EC50 (nM) 1a (H77C), HCV pseudoparticles genotype 1a (H77C), Huh7 cells, luciferase 2 days after infection; class symbol

| Structure (SMILES) | EC50 [nM] |
| --- | --- |
| NC(=O)C(=O)N1CCC2(CCN(C(=O)c3ccc(Nc4nc(NC5(c6ccc(Cl)cc6)CC5)nc(OCC(F)(F)F)n4)cc3)C2)C1 (stereo not drawn) [Compound 1001] | 0.01 to 10 |
| O=C(Nc1cccc(F)c1)C(=O)N1CCC2(CCN(C(=O)c3ccc(Nc4nc(NC5(c6ccc(Cl)cc6)CC5)nc(OCC(F)(F)F)n4)cc3)C2)C1 (stereo not drawn) [Compound 1002] | 0.01 to 10 |
| O=C(Nc1ccc(F)cc1)C(=O)N1CCC2(CCN(C(=O)c3ccc(Nc4nc(NC5(c6ccc(Cl)cc6)CC5)nc(OCC(F)(F)F)n4)cc3)C2)C1 (stereo not drawn) [Compound 1003] | 0.01 to 10 |
| Cc1cc(NC(=O)C(=O)N2CCC3(CCN(C(=O)c4ccc(Nc5nc(NC6(c7ccc(Cl)cc7)CC6)nc(OCC(F)(F)F)n5)cc4)C3)C2)no1 (stereo not drawn) [Compound 1004] | 0.01 to 10 |
| O=C(Nc1ccccc1)C(=O)N1CCC2(CCN(C(=O)c3ccc(Nc4nc(NC5(c6ccc(Cl)cc6)CC5)nc(OCC(F)(F)F)n4)cc3)C2)C1 (stereo not drawn) [Compound 1005] | 0.01 to 10 |
| O=C(NCc1ccc(F)cc1)C(=O)N1CCC2(CCN(C(=O)c3ccc(Nc4nc(NC5(c6ccc(Cl)cc6)CC5)nc(OCC(F)(F)F)n4)cc3)C2)C1 (stereo not drawn) [Compound 1006] | 0.01 to 10 |
| Cc1ccc(NC(=O)C(=O)N2CCC3(CCN(C(=O)c4ccc(Nc5nc(NC6(c7ccc(Cl)cc7)CC6)nc(OCC(F)(F)F)n5)cc4)C3)C2)cc1 (stereo not drawn) [Compound 1007] | 0.01 to 10 |
| O=C(Nc1ccc(F)cc1F)C(=O)N1CCC2(CCN(C(=O)c3ccc(Nc4nc(NC5(c6ccc(Cl)cc6)CC5)nc(OCC(F)(F)F)n4)cc3)C2)C1 (stereo not drawn) [Compound 1008] | 0.01 to 10 |
| O=C(Nc1cc(F)cc(F)c1)C(=O)N1CCC2(CCN(C(=O)c3ccc(Nc4nc(NC5(c6ccc(Cl)cc6)CC5)nc(OCC(F)(F)F)n4)cc3)C2)C1 (stereo not drawn) [Compound 1009] | 0.01 to 10 |
| O=C(NC1CCCCC1)C(=O)N1CCC2(CCN(C(=O)c3ccc(Nc4nc(NC5(c6ccc(Cl)cc6)CC5)nc(OCC(F)(F)F)n4)cc3)C2)C1 (stereo not drawn) [Compound 1010] | 0.01 to 10 |
| O=C(C(=O)N1CCC2(CCN(C(=O)c3ccc(Nc4nc(NC5(c6ccc(Cl)cc6)CC5)nc(OCC(F)(F)F)n4)cc3)C2)C1)N1CCCCC1 (stereo not drawn) [Compound 1011] | 0.01 to 10 |
| O=C(Nc1nccs1)C(=O)N1CCC2(CCN(C(=O)c3ccc(Nc4nc(NC5(c6ccc(Cl)cc6)CC5)nc(OCC(F)(F)F)n4)cc3)C2)C1 (stereo not drawn) [Compound 1012] | 0.01 to 10 |
| O=C(C(=O)N1CCC2(CCN(C(=O)c3ccc(Nc4nc(NC5(c6ccc(Cl)cc6)CC5)nc(OCC(F)(F)F)n4)cc3)C2)C1)N1CCc2ccccc2C1 (stereo not drawn) [Compound 1013] | 0.01 to 10 |
| CC(C)CNC(=O)C(=O)N1CCC2(CCN(C(=O)c3ccc(Nc4nc(NC5(c6ccc(Cl)cc6)CC5)nc(OCC(F)(F)F)n4)cc3)C2)C1 (stereo not drawn) [Compound 1014] | 0.01 to 10 |
| Cc1nnc(NC(=O)C(=O)N2CCC3(CCN(C(=O)c4ccc(Nc5nc(NC6(c7ccc(Cl)cc7)CC6)nc(OCC(F)(F)F)n5)cc4)C3)C2)s1 (stereo not drawn) [Compound 1015] | 0.01 to 10 |

same assay, conditions: Hepatitis C virus, Huh-7, 48 h, read-out: EC50 (nM) 1a (H77C), HCV pseudoparticles genotype 1a (H77C), Huh7 cells, luciferase 2 days after infection; numeric value

| Structure (SMILES) | EC50 [nM] |
| --- | --- |
| NC(=O)C(=O)N1CCC2(CCN(C(=O)c3ccc(Nc4nc(NC5(c6ccc(Cl)cc6)CC5)nc(OCC(F)(F)F)n4)cc3)C2)C1 (stereo not drawn) [Compound 1001] | 1.64 |
| Cc1ccc(NC(=O)C(=O)N2CCC3(CCN(C(=O)c4ccc(Nc5nc(NC6(c7ccc(Cl)cc7)CC6)nc(OCC(F)(F)F)n5)cc4)C3)C2)cc1 (stereo not drawn) [Compound 1007] | 0.255 |
| O=C(C(=O)N1CCC2(CCN(C(=O)c3ccc(Nc4nc(NC5(c6ccc(Cl)cc6)CC5)nc(OCC(F)(F)F)n4)cc3)C2)C1)N1CCc2ccccc2C1 (stereo not drawn) [Compound 1013] | 4.86 |
